Assay results taken from patent US20040209914A1, “Aromatic sulfone hydroxamic acids and their use as protease inhibitors” (priority 2000, published 2004).

Columns and labels:
Recombinant human MMP-2 = molecular target: T1, Recombinant human MMP-2 (Homo sapiens, UniProt P08253); assay: biochemical; settings: fluorogenic MCA-peptide substrate, pH 7.5, room temperature; read-out: MMP-2 IC50
T1 construct: made in house
T1 sequence (P08253 110-660): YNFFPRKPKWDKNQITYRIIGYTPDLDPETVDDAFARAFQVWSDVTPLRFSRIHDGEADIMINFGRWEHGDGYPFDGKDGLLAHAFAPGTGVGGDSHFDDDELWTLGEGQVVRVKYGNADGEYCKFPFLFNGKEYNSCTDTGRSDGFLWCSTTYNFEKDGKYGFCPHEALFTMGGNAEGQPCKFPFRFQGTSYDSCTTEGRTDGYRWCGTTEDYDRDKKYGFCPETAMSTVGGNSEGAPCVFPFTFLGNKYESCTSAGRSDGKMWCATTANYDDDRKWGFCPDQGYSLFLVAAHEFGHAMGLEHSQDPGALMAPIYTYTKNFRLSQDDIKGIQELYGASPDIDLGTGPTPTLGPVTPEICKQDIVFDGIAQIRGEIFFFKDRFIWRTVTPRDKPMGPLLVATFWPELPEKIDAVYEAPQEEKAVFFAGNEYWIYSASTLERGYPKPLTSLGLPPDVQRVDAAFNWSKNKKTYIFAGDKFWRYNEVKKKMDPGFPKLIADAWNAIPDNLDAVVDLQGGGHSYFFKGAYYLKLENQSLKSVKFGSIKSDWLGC
Method in brief: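 Activated (APMA or trypsin) recombinant human MMP-2, from transfected expressing cells, incubated at room temperature with 4 uM fluorogenic substrate MCA-Pro-Leu-Gly-Leu-Dpa-Ala-Arg-NH2 and hydroxamate inhibitor.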

Recombinant human MMP-13 = molecular target: T2, Recombinant human MMP-13 (Homo sapiens, UniProt P45452); assay: biochemical; settings: fluorogenic MCA-peptide substrate, pH 7.5, room temperature; read-out: MMP-13 IC50
T2 construct: made in house; host or cells: baculovirus / insect cells
Method in brief: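 APMA-activated MMP (proenzyme purified on heparin agarose and chelating zinc columns) incubated at room temperature with 4 uM fluorogenic MCA-ProLeuGlyLeuDpaAlaArgNH2 substrate. Inhibition read as reduced fluorescence versus inhibitor concentration relative to a DMSO control, giving IC50.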

Recombinant human MMP-1 = molecular target: T3, Recombinant human MMP-1 (Homo sapiens, UniProt P03956); assay: biochemical; settings: fluorogenic MCA-peptide substrate, pH 7.5, room temperature
T3 construct: made in house; host or cells: transfected HT-1080 cells
T3 sequence (P03956 100-469): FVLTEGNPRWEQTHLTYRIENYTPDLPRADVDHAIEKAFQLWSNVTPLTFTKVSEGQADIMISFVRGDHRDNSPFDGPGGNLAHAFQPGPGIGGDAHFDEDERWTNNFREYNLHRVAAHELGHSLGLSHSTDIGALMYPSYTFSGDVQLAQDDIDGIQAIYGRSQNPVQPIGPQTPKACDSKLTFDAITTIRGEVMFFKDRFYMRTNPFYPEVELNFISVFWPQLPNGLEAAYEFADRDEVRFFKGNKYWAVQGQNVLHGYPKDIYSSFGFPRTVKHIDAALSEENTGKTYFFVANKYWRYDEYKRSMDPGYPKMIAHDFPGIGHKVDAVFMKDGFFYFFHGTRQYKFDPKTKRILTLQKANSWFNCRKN
Method in brief: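 Recombinant human MMP-1 from transfected HT-1080 cells, APMA-activated and hydroxamate-column purified, was incubated at room temperature with 4 uM MCA-ProLeuGlyLeuDpaAlaArgNH2 fluorogenic substrate. Inhibition taken as fall in fluorescence versus inhibitor concentration, giving IC50.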

[1] = system: solid tumor cancers (colorectal, pancreatic, ovarian, and prostate); settings: patients with advanced, rapidly progressive, treatment-refractory solid tumor cancers; cited from earlier work

Row | IC50 (Recombinant human MMP-2) [nM] | IC50 (Recombinant human MMP-13) [nM] | IC50 (Recombinant human MMP-1) [µM] | Structure (SMILES) | effect on cancer-specific antigens used as surrogate markers for biological activity [1]
1 | 28.4 | 0.3 | > 10 | O=C(c1ccc(Br)cc1)C1CCN(c2ccc(S(=O)(=O)C3(C(=O)NO)CCOCC3)cc2)CC1 [Example 378] | 
2 | 1270 | 0.6 | > 10 | O=C(c1ccc(CC2CCCC2)cc1)C1CCN(c2ccc(S(=O)(=O)C3(C(=O)NO)CCOCC3)cc2)CC1 [Example 379] | 
3 | 2290 | 9.7 | > 10 | O=C(c1ccc(CC2CCCCC2)cc1)C1CCN(c2ccc(S(=O)(=O)C3(C(=O)NO)CCOCC3)cc2)CC1 [Example 380] | 
4 | 640 | 3.5 | > 10 | O=C(c1ccc(CCC2CCCC2)cc1)C1CCN(c2ccc(S(=O)(=O)C3(C(=O)NO)CCOCC3)cc2)CC1 [Example 381] | 
5 | 1310 | 0.3 | > 10 | CCC(C)Cc1ccc(C(=O)C2CCN(c3ccc(S(=O)(=O)C4(C(=O)NO)CCOCC4)cc3)CC2)cc1 (stereo not shown) [Example 382] | 
6 |  |  |  | CNC(=O)[C@@H](NC(=O)[C@H](CC(C)C)[C@H](O)C(=O)NO)C(C)(C)C [Marimastat] | dose-related reduction in the rise of cancer-specific antigens
